In patent US10301255B2, “Hepatitis B antiviral agents” (Enanta Pharmaceuticals, Inc., priority 2015, dated 2019):

System: not listed separately
Assay: Compound toxicity by ATPlite 1 Step (total ATP levels)
Assay type: cell-based
Settings: human; HepAD38 cells, day of harvest; 50% reduction of total ATP vs no drug controls
Description: (§1) Methods: HepAD38 cells are maintained as previously reported (Ladner et at, Antimicrob. Agents Chemother. 1997, […], 1715). Briefly, cells are passaged upon attaining confluency in DMEM/F12 media in the presence of 10% FBS, Penn/Strep, 250 μg/mL G418, and 1 ug/ml tetracycline. Novel compounds are screened by first washing cells three times with PBS to remove tetracycline, and plating in 96 well plates at 35,000 cells/well. Compounds dissolved in DMSO are then diluted 1:200 into wells containing cells. Five days after compound addition, material is harvested for analysis. For an extended 8 day analysis, cells are plated and treated as described above, but media and compound are refreshed on d2 and d5 post initial treatment.
Additionally, on day of harvest, compound toxicity is evaluated by treating cells with ATPlite 1 Step according to the manufacturer's protocol. Compound concentrations that reduce total ATP levels in wells by 50% relative to no drug controls (CC50) are reported; CC50 ranges are as follows: […].

Row | Compound | CC50 [µM]
1 | O=C(Nc1cc(F)c(F)c(F)c1)c1ccc(Cl)c(C(F)(F)CCCO)c1 [Compound 1] | < 10
2 | COC(=O)OCCCC(F)(F)c1cc(C(=O)Nc2cc(F)c(F)c(F)c2)ccc1Cl [Compound 2] | 10 to 30
3 | O=C(Nc1cc(F)c(F)c(F)c1)c1ccc(Cl)c(C(F)(F)CCCF)c1 [Compound 3] | < 10
4 | CC(F)(CCCO)c1cc(C(=O)Nc2cc(F)c(F)c(F)c2)ccc1Cl (stereo not drawn) [Compound 21] | > 30

System: HBV
Assay: HepAD38 antiviral assay: reduction of viral product accumulation (virion DNA by qPCR; HBsAg/HBeAg ELISA)
Assay type: cell-based
Settings: Hepatitis B virus, 120 h; HepAD38 cells, tetracycline removed; harvest five days after compound addition; 50% reduction of viral product vs no drug controls
Description: as §1
On harvest day, virion DNA is obtained by lysing with Sidestep Lysis and Stabilization Buffer and then quantified via quantitative real time PCR. Commercially available ELISA kits are used to quantitate the viral proteins HBsAg (Alpco) or HbeAg (US Biological) by following the manufacturer's recommended protocol after diluting samples to match the linear range of their respective assays. Irrespective of readout, compound concentrations that reduce viral product accumulation in the cell lysates or supernatants by 50% relative to no drug controls (EC50) are reported; EC50 ranges are as follows: A<1 μM; […].

Row | Compound | EC50 [µM]
5 | O=C(Nc1cc(F)c(F)c(F)c1)c1ccc(Cl)c(C(F)(F)CCCO)c1 [Compound 1] | < 1
6 | CCNC(=O)OCCCC(F)(F)c1cc(C(=O)Nc2ccc(Cl)c(C#N)c2)ccc1Cl [Compound 7] | > 10
7 | O=C(Nc1ccc(C(F)(F)F)c(Cl)c1)c1ccc(Cl)c(C(F)(F)CCCO)c1 [Compound 18] | > 10
8 | OCCCC(F)(F)c1cc(-c2nc(-c3ccc(F)c(Br)c3)c[nH]2)ccc1Cl [Compound 20] | > 10
9 | O=C(Nc1ccc(F)c(Cl)c1)c1ccc(Cl)c(C(F)(F)CCCO)c1 [Compound 17] | > 10
10 | N#Cc1cc(NC(=O)c2ccc(Cl)c(C(F)(F)CCCOC(=O)NCc3ccccc3)c2)ccc1Cl [Compound 8] | > 10
11 | O=C(Nc1ccc(F)c(C2CC2)c1)c1ccc(Cl)c(C(F)(F)CCCO)c1 [Compound 15] | > 10
12 | N#Cc1ccc(NC(=O)c2ccc(Cl)c(C(F)(F)CCCO)c2)cc1F [Compound 13] | > 10
13 | O=C(Nc1ccc(C(F)(F)F)c(C2CC2)c1)c1ccc(Cl)c(C(F)(F)CCCO)c1 [Compound 11] | > 10
14 | N#Cc1cc(NC(=O)c2ccc(Cl)c(C(F)(F)CCCOC(=O)Nc3ccccc3)c2)ccc1Cl [Compound 9] | > 10
15 | O=C(Nc1ccc(C2CC2)c(Cl)c1)c1ccc(Cl)c(C(F)(F)CCCO)c1 [Compound 12] | > 10
16 | COc1ccc(NC(=O)c2ccc(Cl)c(C(F)(F)CCCO)c2)cc1C#N [Compound 5] | > 10
17 | COC(=O)OCCCC(F)(F)c1cc(C(=O)Nc2cc(F)c(F)c(F)c2)ccc1Cl [Compound 2] | 1 to 10
18 | O=C(Nc1ccc(F)c(C(F)(F)F)c1)c1ccc(Cl)c(C(F)(F)CCCO)c1 [Compound 16] | > 10
19 | N#Cc1ccc(NC(=O)c2ccc(Cl)c(C(F)(F)CCCO)c2)cc1Cl [Compound 14] | > 10
20 | O=C(Nc1cc(F)c(F)c(F)c1)c1ccc(Cl)c(C(F)(F)CCCF)c1 [Compound 3] | < 1
21 | CC(C)(C)NC(=O)OCCCC(F)(F)c1cc(C(=O)Nc2ccc(Cl)c(C#N)c2)ccc1Cl [Compound 10] | > 10
22 | N#Cc1cc(NC(=O)c2ccc(Cl)c(C(F)(F)CCCO)c2)ccc1Cl [Compound 4] | > 10
23 | O=C(Nc1cc(F)c(F)c(F)c1)c1ccc(Cl)c(C(O)CCCO)c1 (stereo not drawn) [Compound 22] | > 10
24 | CC(F)(CCCO)c1cc(C(=O)Nc2cc(F)c(F)c(F)c2)ccc1Cl (stereo not drawn) [Compound 21] | > 10
25 | COc1ccc(NC(=O)c2ccc(Cl)c(C(F)(F)CCCO)c2)cc1C1CC1 [Compound 6] | 1 to 10
26 | N#Cc1ccc(NC(=O)c2ccc(Cl)c(C(F)(F)CCCO)c2)cc1C(F)(F)F [Compound 19] | > 10
27 | O=C(Nc1cc(F)c(F)c(F)c1)c1ccc(Cl)c(C(F)CCCO)c1 (stereo not drawn) [Compound 23] | > 10
